# In patent US10329289B2, “6,7-dihydro-5H-pyrrolo[3,4-B]pyridin-5-one allosteric modulators of the M4 muscarinic acetylcholine receptor” (Merck Sharp & Dohme Corp., priority 2015, dated 2019):
# pEC50: −log10 of the molar value.
# Target: T1, human M4 muscarinic acetylcholine receptor (Homo sapiens, UniProt P08173)
# T1 construct: expressed in transfected cells; host or cells: CHO-K1
# T1 sequence (P08173 1-479): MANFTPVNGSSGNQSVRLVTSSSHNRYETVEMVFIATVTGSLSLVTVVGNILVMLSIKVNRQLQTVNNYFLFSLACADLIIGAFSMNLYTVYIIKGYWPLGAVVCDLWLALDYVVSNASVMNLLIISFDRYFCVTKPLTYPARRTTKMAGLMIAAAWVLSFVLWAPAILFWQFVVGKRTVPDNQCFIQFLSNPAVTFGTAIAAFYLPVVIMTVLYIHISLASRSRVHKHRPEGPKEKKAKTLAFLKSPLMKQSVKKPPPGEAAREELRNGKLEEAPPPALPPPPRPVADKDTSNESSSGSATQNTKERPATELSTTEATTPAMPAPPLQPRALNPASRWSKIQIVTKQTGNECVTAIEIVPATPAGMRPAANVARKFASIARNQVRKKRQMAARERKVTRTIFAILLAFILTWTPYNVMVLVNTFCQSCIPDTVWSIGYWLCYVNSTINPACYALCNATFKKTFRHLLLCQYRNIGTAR
# Test: human FLIPR-based M4 PAM assay (Ca2+ mobilization, CHO-K1 cells with human M4 receptor and Gαqi5)
# Assay type: cell-based
# Details: acetylcholine at 20% of maximum response, read-out: M4 PAM IP
# Summary of the method: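 CHO-K1 cells stably expressing human M4 and chimeric Gαqi5 were dye-loaded ~1 h at 37 °C and read for Ca2+ fluorescence. Compound followed by acetylcholine at an EC20 (sometimes an EC70 third addition); inflection point from a 4-parameter logistic fit.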
row,Compound,pEC50
1,"COc1ccc(O[C@@H]2CCN(c3nc4c(cc3C)C(=O)N(C)[C@@H]4CO)C[C@H]2F)cn1 [Example 282A, (S)-2-((3R,4R)-3-fluoro-4-((6-methoxypyridin-3-yl)oxy)piperidin-1-yl)-7-(hydroxymethyl)-3,6-dimethyl-6,7-dihydro-5H-pyrrolo[3,4-b]pyridin-5-one]",7.42
2,"Cc1cc2c(nc1N1CCC(Oc3cccc(C#N)c3)CC1)[C@@H](C)N(C)C2=O [Example 28A, (R)-3-((1-(3,6,7-trimethyl-5-oxo-6,7-dihydro-5H-pyrrolo[3,4-b]pyridin-2-yl)piperidin-4-yl)oxy)benzonitrile]",7.08
3,"CCc1cc2c(nc1N1CCC(Oc3ccc4c(c3)OCC4)CC1)CNC2=O [Example 198A, 2-(4-((2,3-dihydrobenzofuran-6-yl)oxy)piperidin-1-yl)-3-ethyl-6,7-dihydro-5H-pyrrolo[3,4-b]pyridin-5-one]",6.96
4,"Cc1c(N2CCC(OCC3CCC3)CC2)nc2c(c1C)C(=O)NC2 [Example 330, 2-(4-(cyclobutylmethoxy)piperidin-1-yl)-3,4-dimethyl-6,7-dihydro-5H-pyrrolo[3,4-b]pyridin-5-one]",7.29
5,"Cc1cc2c(nc1N1CCC(Oc3ccc4c(c3)CN(C)CC4)CC1)CNC2=O [Example 292, 3-methyl-2-(4-((2-methyl-1,2,3,4-tetrahydroisoquinolin-7-yl)oxy)piperidin-1-yl)-6,7-dihydro-5H-pyrrolo[3,4-b]pyridin-5-one]",6.76
6,"Cc1cc2c(nc1N1CCC(OCC3(C#N)CC3)CC1)CNC2=O [Example 36, 1-(((1-(3-methyl-5-oxo-6,7-dihydro-5H-pyrrolo[3,4-b]pyridin-2-yl)piperidin-4-yl)oxy)methyl)cyclo-propane-1-carbonitrile]",6.52
7,"Cc1cc2c(nc1N1CCC(Oc3ccc4c(c3)C(C)(C)CO4)CC1)CNC2=O [Example 130, 2-(4-((3,3-dimethyl-2,3-dihydrobenzofuran-5-yl)oxy)piperidin-1-yl)-3-methyl-6,7-dihydro-5H-pyrrolo[3,4-b]pyridin-5-one]",6.98
8,"Cc1cc2c(nc1N1CC[C@@H](Oc3cccc(C#N)c3)[C@@H](F)C1)CNC2=O (relative stereo) [Example 7, 3-((cis-3-fluoro-1-(3-methyl-5-oxo-6,7-dihydro-5H-pyrrolo[3,4-b]pyridin-2-yl)piperidin-4-yl)oxy)benzonitrile]",7.52
9,"Cc1cc2c(nc1N1CCC(OCC3(C)CC3C#N)CC1)CNC2=O (single isomer, unassigned) [Example 193A]",6.51
10,Cc1cc2c(nc1N1CCC(Oc3cccc(F)c3)CC1)CNC2=O [Example 71],7.38
11,"Cc1cc2c(nc1N1CCC(Oc3ccc4c(c3)nc(C)n4C)CC1)CNC2=O [Example 209, 2-(4-((1,2-dimethyl-1H-benzo[d]imidazol-5-yl)oxy)piperidin-1-yl)-3-methyl-6,7-dihydro-5H-pyrrolo[3,4-b]pyridin-5-one]",5.58
12,"COc1ccc(OC2CCN(c3nc4c(cc3C)C(=O)N(C)[C@]4(C)CO)CC2)cn1 (single isomer, unassigned) [Example 287B]",6.67
13,"Cc1cc2c(nc1N1CCC(Oc3ccc4c(c3)CCOCC4)CC1)CNC2=O [Example 321B, 3-methyl-2-(4-((1,2,4,5-tetrahydrobenzo[d]oxepin-7-yl)oxy)piperidin-1-yl)-6,7-dihydro-5H-pyrrolo[3,4-b]pyridin-5-one]",7.04
14,"Cc1cc2c(nc1N1CCC(Oc3ccc4c(c3)C(=O)OC4)CC1)CNC2=O [Example 110, 3-methyl-2-(4-((3-oxo-1,3-dihydro-2-benzofuran-5-yl)oxy)piperidin-1-yl)-6,7-dihydro-5H-pyrrolo[3,4-b]pyridin-5-one]",7.41
15,"Cc1cc2c(nc1N1CCC(Oc3cnc4c(c3)CC[C@H]4O)CC1)CNC2=O (single isomer, unassigned) [Example 324D]",6.17
16,"Cc1cc2c(nc1N1CCC(Oc3ccc4[nH]nc(C)c4c3)CC1)CNC2=O [Example 117, 3-methyl-2-(4-((3-methyl-1H-indazol-5-yl)oxy)piperidin-1-yl)-6,7-dihydro-5H-pyrrolo[3,4-b]pyridin-5-one]",7.77
17,"COCCOC1CCN(c2nc3c(cc2C)C(=O)NC3)CC1 [Example 56, 2-(4-(2-methoxyethoxy)piperidin-1-yl)-3-methyl-6,7-dihydro-5H-pyrrolo[3,4-b]pyridin-5-one]",4.95

row,Compound,pEC50
1,"Cc1c(N2CC[C@H](Oc3cnn(C)c3)C(F)(F)C2)nc2c(c1C)C(=O)NC2 [Example 336C, (S)-2-(3,3-difluoro-4-((l-methyl-1H-pyrazol-4-yl)oxy)piperidin-1-yl)-3,4-dimethyl-6,7-dihydro-5H-pyrrolo[3,4-b]pyridin-5-one]",7.48
2,"Cc1cc2c(nc1N1CC[C@@H](Oc3ccc4c(cnn4C)c3)[C@H](F)C1)CN(CCO)C2=O [Example 241A, 2-((3R,4R)-3-fluoro-4-((1-methyl-1H-indazol-5-yl)oxy)piperidin-1-yl)-6-(2-hydroxyethyl)-3-methyl-6,7-dihydro-5H-pyrrolo[3,4-b]pyridin-5-one]",7.03
3,"Cc1cc2c(nc1N1CCC(Oc3ccncc3)CC1)CNC2=O [Example 77, 3-methyl-2-(4-(pyridin-4-yloxy)piperidin-1-yl)-6,7-dihydro-5H-pyrrolo[3,4-b]pyridin-5-one]",6.67
4,"Cc1cc2c(nc1N1CCC(Oc3ccc(O[C@H](C)CO)nc3)CC1)CNC2=O [Example 143B, (R)-2-(4-((6-((1-hydroxypropan-2-yl)oxy)pyridin-3-yl)oxy)piperidin-1-yl)-3-methyl-6,7-dihydro-5H-pyrrolo[3,4-b]pyridin-5-one]",6.93
5,"Cc1cc2c(nc1N1CCC(Oc3ccc4c(c3)OCCN4)CC1)CNC2=O [Example 148, 2-(4-((3,4-dihydro-2H-benzo[b][1,4]oxazin-7-yl)oxy)piperidin-1-yl)-3-methyl-6,7-dihydro-5H-pyrrolo[3,4-b]pyridin-5-one]",7.51
6,"Cc1cc2c(nc1N1CCC(Oc3cnc4c(c3)CCO4)CC1)CNC2=O [Example 201A, 2-(4-((2,3-dihydrofuro[2,3-b]pyridin-5-yl)oxy)piperidin-1-yl)-3-methyl-6,7-dihydro-5H-pyrrolo[3,4-b]pyridin-5-one]",7.17
7,"Cc1cc2c(nc1N1CCC(Oc3cnn(C)c3)CC1)[C@H](CO)N(C)C2=O [Example 358, (R)-7-(hydroxymethyl)-3,6-dimethyl-2-(4-((1-methyl-1H-pyrazol-4-yl)oxy)piperidin-1-yl)-6,7-dihydro-5H-pyrrolo[3,4-b]pyridin-5-one]",5.09
8,"COc1ccc(OC2CCN(c3nc4c(cc3C)C(=O)N(C)[C@@]4(C)CO)CC2)cn1 (single isomer, unassigned) [Example 287A]",5.41
9,"Cc1cc2c(nc1N1CCC(OCC3(C)CC3C#N)CC1)CNC2=O (single isomer, unassigned) [Example 193B]",6.06
10,"Cc1cc2c(nc1N1CCC(Oc3ccccc3)C(F)(F)C1)CNC2=O (single isomer, unassigned) [Example 158A, cis-2-(3,3-Difluoro-4-phenoxypiperidin-1-yl)-3-methyl-6,7-dihydro-5H-pyrrolo[3,4-b]pyridin-5-one]",6.34
11,"Cc1cc2c(nc1N1CCC(Oc3ccc4c(c3)OCCO4)CC1)CNC2=O [Example 132, 2-(4-((2,3-dihydrobenzo[b][1,4]dioxin-6-yl)oxy)piperidin-1-yl)-3-methyl-6,7-dihydro-5H-pyrrolo[3,4-b]pyridin-5-one]",7.52
12,"Cc1cc2c(nc1N1CCC(Oc3cnc4c(c3)COC4)CC1)CN(C)C2=O [Example 49, 2-(4-((5,7-dihydrofuro[3,4-b]pyridin-3-yl)oxy)piperidin-1-yl)-3,6-dimethyl-6,7-dihydro-5H-pyrrolo[3,4-b]pyridin-5-one]",7.03
13,"Cc1cc2c(nc1N1CCC(Oc3ccc4c(c3)COC4)CC1)[C@@H](CO)N(C)C2=O [Example 281, (S)-2-(4-((1,3-dihydro-2-benzofuran-5-yl)oxy)piperidin-1-yl)-7-(hydroxymethyl)-3,6-dimethyl-6,7-dihydro-5H-pyrrolo[3,4-b]pyridin-5-one]",7.64
14,"Cc1cc2c(nc1N1CCC(Oc3cccc(C#N)c3)CC1)CN(CCO)C2=O [Example 239, 3-((1-(6-(2-hydroxyethyl)-3-methyl-5-oxo-6,7-dihydro-5H-pyrrolo[3,4-b]pyridin-2-yl)piperidin-4-yl)oxy)benzonitrile]",7.44
15,"Cc1c(N2CCC(Oc3ccc4c(c3)COCC4)CC2)nc2c(c1C)C(=O)NC2 [Example 332, 2-(4-(isochroman-7-yloxy)piperidin-1-yl)-3,4-dimethyl-6,7-dihydro-5H-pyrrolo[3,4-b]pyridin-5-one]",6.43
16,"COc1ccc(OC2CCN(c3nc4c(cc3C)C(=O)N(C(=O)OC(C)(C)C)C4)CC2)cn1 [Example 299, tert-Butyl 2-(4-((6-methoxypyridin-3-yl)oxy)piperidin-1-yl)-3-methyl-5-oxo-5,7-dihydro-6H-pyrrolo[3,4-b]pyridine-6-carboxylate]",6.58
17,"COc1ccc(O[C@H]2C[C@H]3CC[C@@H](C2)N3c2nc3c(cc2C)C(=O)NC3)cn1 [Example 97, 2-(endo-3-((6-methoxypyridin-3-yl)oxy)-8-azabicyclo[3.2.1]octan-8-yl)-3-methyl-6,7-dihydro-5H-pyrrolo[3,4-b]pyridin-5-one]",6.10
